# Results taken from ChEMBL document CHEMBL3988442, “University of Dundee, Small-Polar-MMV Screening Library” (2021).
# Assay: In vitro enzyme assay to detect hydrolysis of chlorophenol red-beta-D-[…] directly proportional to the number of Toxoplasma stably expressing beta-galactosidase
# Type: functional, organism-based, Toxoplasma gondii
# Conditions: not given
row,Structure (SMILES),pIC50
1,CC(C)NC(=O)Nc1nc2c(s1)CN(C(=O)NCc1cccs1)CC2,4.581
2,OC1CCN(c2ccnc(NCCc3ccccc3Cl)n2)C1 (stereo unspecified),5.797
3,COc1ccc(C(=O)N(CCO)Cc2ccccc2)c(OC)n1,< 4.3
4,c1cc(-c2nn3c(CN4CCOCC4)nnc3s2)ccn1,< 4.3
5,CN(C)CCCNCCC(Cc1ccccc1)C1CCOC(C)(C)C1.O=C(O)C(=O)O (stereo unspecified),5.163
6,COC(=O)CC(C1=Cc2ccccc2OC1)c1oc(C)cc(=O)c1O (stereo unspecified),4.537
7,CCc1cc(N2CCC(NCCc3ccccc3F)CC2)nc(C)n1,4.968
8,CCn1nc(C)c2nc(C(C)C)nc(NCCc3ccc(O)cc3)c21,4.521
9,c1nc(N2CCOCC2)nc2c1COCC21CCN(CC2CC2)C1 (stereo unspecified),< 4.3
10,CCn1c(NCc2ccccc2)nc2c(C)nn(C)c2c1=O,4.457

# Same assay, conditions: Toxoplasma gondii
row,Structure (SMILES),IC50
1,CCOc1ncccc1C(=O)NCC(C)N1CCCC1 (stereo unspecified),> 50.1 µM
2,CC(C)NC(=O)Nc1nc2c(s1)CN(C(=O)NCc1cccs1)CC2,> 50.1 µM
3,COCC(=O)NCc1nn(CCN2CCCC2)c(=O)c2ccccc12,26.7 µM
4,Nc1c[nH]nc1-c1ccccn1,> 50.1 µM
5,Cc1nc2cc(C3CCN(Cc4cccc(F)c4F)C3)nn2c(O)c1C (stereo unspecified),10.5 µM
6,COCc1nn(CC(=O)c2cc(F)ccc2F)c(=O)o1,> 50.1 µM
7,COc1ccc(-n2nnc(C(=O)O)c2-c2ccccn2)cc1,24.8 µM
8,CCN1CC2(CC1=O)CN(Cc1ccncc1)CCN(C(=O)C(C)C)C2 (stereo unspecified),> 50.1 µM
9,NC1CCN(C(=O)C2(c3cccc(F)c3)CC2)CC1,> 50.1 µM
10,CC(C)C(O)CCNS(=O)(=O)c1ccccc1 (stereo unspecified),> 50.1 µM
11,CCc1ccc(CN(CCO)Cc2nccn2C)nc1,> 50.1 µM
12,CC(C)c1ocnc1C(=O)Nc1cccc(Cn2ccccc2=O)c1,> 50.1 µM
13,CC(C)CC(=O)N1CC[C@H]2N(C)CC[C@@]2(C(=O)Nc2ccccc2)CC1,> 50.1 µM
14,OC1(CNCCOCc2ccc(Cl)cc2)CCCNC1 (stereo unspecified),> 50.1 µM
15,Cc1ccc(CN2CCC(C3CCNC3)CC2)nc1 (stereo unspecified),> 50.1 µM
16,CC(=O)N1CCN(c2ncnc3cc4c(cc23)OCCO4)CC1,> 50.1 µM
17,CCNc1ncc2c(n1)CN(c1ccc(OC(F)(F)F)cc1)C2=O,> 50.1 µM
18,CNC(=O)[C@@H]1CSCN1c1ccc(C(F)(F)F)cn1,> 50.1 µM
19,CCn1nc(C)c2nc(C(C)C)nc(NCCCn3cccn3)c21,35.2 µM
20,OC1CCN(c2ccnc(NCCc3ccccc3Cl)n2)C1 (stereo unspecified),2.35 µM
21,CS(=O)(=O)Nc1nn(Cc2ccc(F)cc2)cc1Br,> 50.1 µM
22,Cn1cc(N2CC3(CCN(Cc4nccs4)CC3)OCC2=O)cn1,> 50.1 µM

row,Structure (SMILES),IC50
1,O=C(C[C@@H]1COC[C@H]2CN(Cc3ccncc3)C[C@@H]12)N1CCCC1,> 50.1 µM
2,NC1CCN(CC(F)F)CC1,> 50.1 µM
3,CC(C)n1cc(S(=O)(=O)N2CCCCCC2)cn1,> 50.1 µM
4,N#Cc1c(Cl)nsc1NCC1(c2ccccc2)CCC1,5.72 µM
5,CCn1nc(C)c2nc(C(C)C)nc(NC)c21,> 50.1 µM
6,CN1CCC(NC(=O)c2cc3ccccc3s2)C1=O (stereo unspecified),> 50.1 µM
7,COc1ccc(C(=O)N(CCO)Cc2ccccc2)c(OC)n1,29.2 µM
8,Cn1ncc(C(=O)N2CCN(CCS(C)(=O)=O)CC2)c1Cl,> 50.1 µM
9,O=C(c1cc(=O)[nH][nH]1)N1CCCC2(CCC(=O)N(C3CCCC3)C2)C1 (stereo unspecified),> 50.1 µM
10,CO[C@H]1CC[C@H]2[C@H]1OCCN2Cc1ccc(F)c(F)c1,> 50.1 µM
11,Cc1ccc(CN2CCCn3c(nc(Cn4ccnc4)cc3=O)C2)o1,> 50.1 µM
12,COC(=O)c1cnc2[nH]nc(C)c2c1,> 50.1 µM
13,Cc1ccc([C@]2(O)CC[C@H]3CN(Cc4cccc(Cl)c4Cl)C[C@H]32)nc1,8.76 µM
14,CCn1c(SCC(=O)O)nnc1C(C)NC(=O)c1ccc(Cl)cc1 (stereo unspecified),> 50.1 µM
15,Cc1nn(C)c2c(N(C)Cc3ccco3)nc(C3CC3)nc12,11.8 µM
16,CC(c1cccs1)n1nccc1N (stereo unspecified),> 50.1 µM
17,COc1cc(Br)c(CN)cc1OC,> 50.1 µM
18,O=C(c1cccnc1)c1ncc[nH]1,> 50.1 µM
19,Cc1c(CC(=O)N2CCN(C(C)C)CC2)nnn1-c1ccccc1,> 50.1 µM
20,CC(C)NC(=O)C1CN(C(=O)CCc2ccccc2)CC12CCOCC2 (stereo unspecified),> 50.1 µM
21,Cc1ccc(C(=O)NCCN2CCOCC2)c(C)c1,> 50.1 µM
22,CC(=O)c1ccc(OCC(O)Cn2ccnc2)cc1 (stereo unspecified),> 50.1 µM

row,Structure (SMILES),IC50
1,CCC1=NC(SCC(=O)c2ccccc2)c2cc(CC)sc2N1 (stereo unspecified),14.9 µM
2,CCc1noc(CC)c1CNC(=O)Nc1ncnn1C,> 50.1 µM
3,Cc1nn(C)c2c(=O)n(Cc3ccccc3)nnc12,> 50.1 µM
4,CN[C@@H]1COc2ccccc2[C@H](O)C1,> 50.1 µM
5,Cn1cccc1C(=O)OCCCN1CCOCC1,> 50.1 µM
6,N#Cc1ccc(C2NC(=O)c3cccnc3N2)cc1 (stereo unspecified),> 50.1 µM
7,CCn1nc(-c2ccc(F)cc2)oc1=O,> 50.1 µM
8,O=C(NCc1nc(C2CC2)no1)Nc1nncs1,> 50.1 µM
9,CN1CCCN(C(=O)COc2ccc(Br)cc2)CC1,> 50.1 µM
10,CSc1ccccc1NCC(=O)NC1CC1,> 50.1 µM
11,COc1ccc(C(=O)Nc2c(C(=O)N(C)C)nn(C)c2C)cc1,> 50.1 µM
12,O[C@@H]1CN(c2nc3ccccc3s2)CC[C@H]1c1ccc2c(c1)OCO2,5.27 µM
13,CNc1cccnc1N(C)C,> 50.1 µM
14,CC(C)N1CCCN(c2nc(-c3cccnc3)nc3c2cnn3C)CC1,5.84 µM
15,CCc1nc2ccccc2c(=O)n1CC1(O)CCN(C(=O)COC)CC1,> 50.1 µM
16,c1cc(-c2nn3c(CN4CCOCC4)nnc3s2)ccn1,44.7 µM
17,CCNC(C)(C)C(=O)N(C)Cc1ccc(OC)c(F)c1,> 50.1 µM
18,O=C(Nc1ccc(Br)cn1)C1CCCNC1 (stereo unspecified),> 50.1 µM
19,Cc1ccc(Cl)cc1NC(=O)CN1CCNC(=O)C1,> 50.1 µM
20,COc1cccc(-c2noc(C3CCN(Cc4ccccc4C)C3)n2)c1 (stereo unspecified),10.1 µM
21,O=C(CN1CCCc2cc(F)cc(F)c21)Nc1ccc(Br)cn1,30.4 µM
22,Cc1ccc(F)cc1C(=O)NC1CCCNC1 (stereo unspecified),> 50.1 µM

row,Structure (SMILES),IC50
1,CCC(C)Oc1ccc(CNCCc2c[nH]cn2)cc1Cl (stereo unspecified),29 µM
2,CN(C)CCCNCCC(Cc1ccccc1)C1CCOC(C)(C)C1.O=C(O)C(=O)O (stereo unspecified),4.6 µM
3,COc1ccc(-c2cncc(N)c2)cc1CO,> 50.1 µM
4,OC1(Cc2ccccc2F)CCNC1 (stereo unspecified),> 50.1 µM
5,COc1ccc(C)cc1CC(=O)N1CCN(C)CC1,> 50.1 µM
6,c1cc(-c2c[nH]nc2C2CCCCC2)nc(N2CCCCCC2)n1,6.23 µM
7,O=C(NC1CCCSC1)N(CCO)C1CC1 (stereo unspecified),> 50.1 µM
8,CCC(CC)(CCO)CNC(=O)c1cncc(C)c1,> 50.1 µM
9,CCC(=O)c1nccn1C,> 50.1 µM
10,CC(=O)N1CC[C@@]2(C(=O)Nc3ccccc3)CCN(S(C)(=O)=O)CC[C@@H]12,> 50.1 µM
11,O=C(NCCn1cnc(C2CCCC2)cc1=O)NCc1cccs1,7.44 µM
12,COC(=O)CC(C1=Cc2ccccc2OC1)c1oc(C)cc(=O)c1O (stereo unspecified),> 50.1 µM
13,CC(C)[C@@H]1CN(c2ncc(F)cn2)C[C@H]1NS(=O)(=O)N(C)C,> 50.1 µM
14,CN(C)C(=O)CNC(CO)c1ccc(Cl)c(F)c1 (stereo unspecified),> 50.1 µM
15,Cc1cc(C(=O)Nc2cccc(C[S+](C)[O-])c2)on1 (stereo unspecified),> 50.1 µM
16,CC(=O)Nc1ccc(CN2CCCOC(C)C2)cc1 (stereo unspecified),> 50.1 µM
17,COc1c(N)c(C)nn1C,> 50.1 µM
18,CC(C)(CO)NCC(O)c1cccc(Cl)c1 (stereo unspecified),> 50.1 µM
19,Cc1ccnc(NC(=O)N(C)Cc2ccncc2)c1,> 50.1 µM
20,O=C(NCCC1=CCCCC1)c1cc(-c2ccc(O)cc2)n[nH]1,0.391 µM
21,Cc1ccoc1C(=O)Nc1cccc(CO)n1,> 50.1 µM
22,CCc1cc(N2CCC(NCCc3ccccc3F)CC2)nc(C)n1,8.65 µM

row,Structure (SMILES),IC50
1,CCn1nc(C)c2nc(C(C)C)nc(NCCc3ccc(O)cc3)c21,22.2 µM
2,Nc1nc2c(c(NCc3nccs3)n1)CCN(CC1CCCC1)CC2,7.85 µM
3,CSCC(=O)NC(C1CCNCC1)[C@H]1C[C@@H](O)C1 (stereo partly specified),> 50.1 µM
4,CCC(CC)(CC)SCC(=O)N1CCNC(=O)C1,> 50.1 µM
5,Cc1cc(C(=O)N(C)Cc2cccs2)nc(N2CCCCC2)n1,> 50.1 µM
6,CCOc1ccc2ccccc2c1CNCC1CCNCC1,6.4 µM
7,Cn1cc(CN2CCn3cc(Cn4cccn4)nc3C2)cn1,> 50.1 µM
8,CN(C)[C@H]1CCCCN(C(=O)Cn2cc(Cl)cn2)C1,> 50.1 µM
9,CN(CCNS(C)(=O)=O)CCSc1ccccc1,> 50.1 µM
10,O=C(CCNC(=O)c1ccccc1F)Nc1nccs1,> 50.1 µM
11,NCCc1cc(-c2ccncc2)[nH]n1,> 50.1 µM
12,c1nc(N2CCOCC2)nc2c1COCC21CCN(CC2CC2)C1 (stereo unspecified),44 µM
13,CCc1nnc(Nc2cc(C)nc(C3CCN(c4ccncn4)C3)n2)s1 (stereo unspecified),> 50.1 µM
14,CCN(CC(C)C#N)C(=O)c1ccc(Br)o1 (stereo unspecified),> 50.1 µM
15,COc1ccc(-c2nnc(SC(C)C(=O)NC3CCCC3)[nH]2)c(OC)c1 (stereo unspecified),> 50.1 µM
16,Cc1c(C)n(Cc2ccccn2)c2nc3c(c(N)c12)CCCCCC3,6.75 µM
17,Cc1[nH]c2ccccc2c1-c1ccnc(N[C@H](CO)CC(C)C)n1,> 50.1 µM
18,Nc1ccc(CN2CCN(CCO)CC2)cn1,> 50.1 µM
19,CCNS(=O)(=O)c1csc(C(=O)Nc2cc(C)on2)c1,> 50.1 µM
20,O=C(NCc1ccc2c(c1)OCO2)n1ccnc1,> 50.1 µM
21,Cc1ocnc1CNC(=O)c1ccon1,> 50.1 µM
22,Cc1[nH]c2ccccc2c1-c1ccnc(N[C@@H](CO)C(C)C)n1,19.8 µM

row,Structure (SMILES),IC50
1,CCn1c(NCc2ccccc2)nc2c(C)nn(C)c2c1=O,22.7 µM
2,Cc1ccoc1C(=O)NC1CCN(Cc2csc3c(F)cccc23)CC1,8.38 µM
3,CS(=O)(=O)N1CCOCC2(CCN(c3ccccn3)C2)C1 (stereo unspecified),> 50.1 µM
4,COCCNc1cc(C)nn2cnnc12,> 50.1 µM
5,CCc1cnc(CNC)s1,> 50.1 µM
6,Fc1cnc(N2CCO[C@H]3CN(CC4CCCCC4)C[C@H]32)nc1,> 50.1 µM
7,Cn1cc(CN(C(=O)c2ccc(N)nc2)C2CC2)cn1,> 50.1 µM
8,NC1CCN(Cc2ccccc2)C1=O (stereo unspecified),> 50.1 µM
9,Cc1oc(-c2ccoc2)nc1CN1CCC[C@H]1CO,4.96 µM
10,CS(=O)(=O)c1ccc(-c2cc(O)cc(CCC3CCCCN3)c2)cc1 (stereo unspecified),16.6 µM
11,CCNc1ncc2c(n1)CN(c1ccc(Cl)cc1)C2=O,> 50.1 µM
12,CCn1ccc(-c2cc(NCCCOc3ccccc3C)nc(C)n2)n1,11.7 µM
13,CSCCC1c2nc[nH]c2CCN1Cc1cc(Cl)ccc1O (stereo unspecified),12.3 µM
14,Cc1nnc(SCCO)s1,> 50.1 µM
15,O=C(Nc1ccncc1)NC1CCN(c2ccccc2OC(F)F)C1 (stereo unspecified),1.87 µM
16,O=C(N1CCOCC1)[C@@]12CCO[C@@H]1CCN(C1CCOCC1)C2,> 50.1 µM
17,c1cc(SCCOCC2CCCO2)ccn1 (stereo unspecified),> 50.1 µM
18,CCC(=O)N1CCN(c2ncnc3cc4c(cc23)OCCO4)CC1,> 50.1 µM
19,Cn1cccc1C(=O)N1C[C@@H](OCc2ccncc2)[C@@H]2OCCC[C@@H]21,> 50.1 µM
20,OC[C@@H]1CCCN1Cc1ccc(F)c2cccnc12,3.76 µM
21,CCCNC(=O)NCCc1noc(-c2cccnc2)n1,> 50.1 µM
